PMC3265452 (PLoS Neglected Tropical Diseases, 2012)
Counter-ions that a name gives are not always drawn.

The compounds below were run against AaDOP2 (Aedes aegypti, UniProt H6D5H2) (assay: AaDOP2 antagonist screen of the LOPAC1280 library (HEK-CRELuc-Aadop2 cells, luminescence)). Conditions: not given.
Assay type: cell-based

Sequence of AaDOP2 (H6D5H2 1-476): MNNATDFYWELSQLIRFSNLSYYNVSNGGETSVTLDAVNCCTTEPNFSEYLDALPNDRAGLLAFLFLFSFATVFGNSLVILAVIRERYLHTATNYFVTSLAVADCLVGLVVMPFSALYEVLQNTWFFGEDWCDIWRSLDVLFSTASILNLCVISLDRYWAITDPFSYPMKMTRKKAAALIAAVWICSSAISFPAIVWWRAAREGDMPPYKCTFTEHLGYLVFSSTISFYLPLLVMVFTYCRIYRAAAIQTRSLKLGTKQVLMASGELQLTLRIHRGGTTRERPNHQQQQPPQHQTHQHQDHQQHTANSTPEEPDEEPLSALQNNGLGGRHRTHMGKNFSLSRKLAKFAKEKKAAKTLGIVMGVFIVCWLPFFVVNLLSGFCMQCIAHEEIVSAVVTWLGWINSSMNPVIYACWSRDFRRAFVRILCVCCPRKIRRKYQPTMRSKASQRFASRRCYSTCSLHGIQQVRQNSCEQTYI

Compound | Compound effect (percent receptor signaling in presence of test compound, relative lux units relative to the SCH23390 control)
CC(C)(C)c1cc(/C=C(\C#N)C(N)=S)cc(C(C)(C)C)c1O [Compound 1158, Tyrphostin AG 879] | 33
Cl.Oc1cc2c(cc1O)C(c1ccccc1)CNCC2 (racemic) [Compound 444, (±)-SKF-38393 hydrochloride] | 101
COCCCC/C(=N\OCCN)c1ccc(C(F)(F)F)cc1 [Compound 514, Fluvoxamine maleate] | 114
Cl.N[C@@H](Cc1cnc[nH]1)C(=O)O [Compound 601, L-Histidine hydrochloride] | 91
CN1CCC(c2c[nH]c3ccc(O)cc23)CC1.O=C(O)/C=C\C(=O)O [Compound 213, BRL 54443 maleate] | 80
Nc1nc(Cl)nc2c1ncn2[C@@H]1O[C@H](COP(=O)([O-])OP(=O)([O-])OP(=O)([O-])[O-])[C@@H](O)[C@H]1O.[Na+].[Na+].[Na+].[Na+] [Compound 340, 2-Chloroadenosine triphosphate tetrasodium] | 102
Nc1nc(Cl)nc2c1ncn2[C@@H]1O[C@H](CO)[C@@H](O)[C@H]1O [Compound 270, 2-Chloroadenosine] | 118
COC(=O)C(C)(N)Cc1ccc(O)cc1.Cl (racemic) [Compound 759, alpha-Methyl-DL-tyrosine methyl ester hydrochloride] | 101
Cl.NCC(O)C1CCCCCCC1 (centres unmarked) [Compound 331, 2-Cyclooctyl-2-hydroxyethylamine hydrochloride] | 95
CNC(=C[N+](=O)[O-])NCCSCc1ccc(CN(C)C)o1 [Compound 1060, Ranitidine hydrochloride] | 106
C[N+](C)(C)CC#CCOC(=O)Nc1cccc(Cl)c1.[Cl-] [Compound 292, McN-A-343] | 121
CCN(CC)CCOCCOC(=O)C1(c2ccccc2)CCCC1 [Compound 264, Carbetapentane citrate] | 93
C#C[C@]1(O)CC[C@H]2[C@@H]3CCC4=Cc5nc6nc7ccccc7n6cc5C[C@]4(C)[C@H]3CC[C@@]21C [Compound 1265, WIN 62,577] | 59
CNCCCN1c2ccccc2CCc2ccccc21 [Compound 380, Desipramine hydrochloride] | 29
C=CCN1C[C@H](C)N([C@H](c2ccc(C(=O)N(CC)CC)cc2)c2cccc(OC)c2)C[C@H]1C [Compound 1090, SNC80] | 94
CN1[C@@H]2CC[C@H]1C[C@@H](OC(=O)[C@H](CO)c1ccccc1)C2 [Compound 609, L-Hyoscyamine] | 75
O=c1nc2[nH]c3ccccc3nc-2c(=O)[nH]1 [Compound 144, Alloxazine] | 104
O=c1ccn([C@@H]2O[C@H](COP(=O)([O-])OP(=O)([O-])[O-])[C@@H](O)[C@H]2O)c(=O)[nH]1.[Na+].[Na+].[Na+] [Compound 1233, Uridine 5'-diphosphate sodium] | 78
N#C/C(=C\c1ccc(O)c(O)c1)C(=O)NCCc1ccccc1 [Compound 1181, Tyrphostin AG 698] | 82
CC(=O)CCCCn1c(=O)c2c(ncn2C)n(C)c1=O [Compound 926, Pentoxifylline] | 119
Br.C=CCN1CCc2cccc3c2[C@H]1Cc1ccc(O)c(O)c1-3 [Compound 441, R(-)-N-Allylnorapomorphine hydrobromide] | 87

Compound | Compound effect (percent receptor signaling in presence of test compound, relative lux units relative to the SCH23390 control)
O=c1c(O)c(-c2ccc(O)c(O)c2)oc2cc(O)cc(O)c12 [Compound 1028, Quercetin dihydrate] | 34
COc1cc2c(c(OC)c1OC)-c1ccc(OC)c(=O)cc1[C@@H](NC(C)=O)CC2 [Compound 319, Colchicine] | 131
CN1CCN(C(=O)OC2c3nccnc3C(=O)N2c2ccc(Cl)cn2)CC1 (centres unmarked) [Compound 1279, Zopiclone] | 99
C#CCN(C)CCCOc1ccc(Cl)cc1Cl [Compound 763, Clorgyline hydrochloride] | 96
COc1ccc([C@@H]2Sc3ccccc3N(CCN(C)C)C(=O)[C@@H]2OC(C)=O)cc1 [Compound 369, Diltiazem hydrochloride] | 107
CC#CCOC(=O)c1c(C)nc2sc3c(c2c1N)CCC(O)C3 (centres unmarked) [Compound 1112, SB 205384] | 81
NC(=O)c1ccccc1 [Compound 160, Benzamide] | 100
CCC1(C)CC(=O)NC1=O (centres unmarked) [Compound 494, Ethosuximide] | 146
CN(C)CCCO[C@@H]1[C@H]2OC(C)(C)O[C@H]2O[C@@H]1[C@H](O)CO [Compound 53, Amiprilose hydrochloride] | 99
Cl.Cl.c1ccc(CCCN2CCN(CCOC(c3ccccc3)c3ccccc3)CC2)cc1 [Compound 560, GBR-12935 dihydrochloride] | 61
Cc1cnc(NC(=O)C2=C(O)c3ccccc3S(=O)(=O)N2C)s1 [Compound 765, Meloxicam sodium] | 115
Cc1nnc(SCC2=C(C(=O)O)N3C(=O)[C@@H](NC(=O)Cn4cnnn4)[C@H]3SC2)s1 [Compound 268, Cefazolin sodium] | 96
CN([C@@H](Cc1ccc(OS(=O)(=O)c2cccc3cnccc23)cc1)C(=O)N1CCN(c2ccccc2)CC1)S(=O)(=O)c1cccc2cnccc12 [Compound 638, KN-62] | 104
Nc1nc2c(ncn2COCCO)c(=O)[nH]1 [Compound 52, Acyclovir] | 90
COCCc1ccc(OCC(O)CNC(C)C)cc1.COCCc1ccc(OCC(O)CNC(C)C)cc1.O=C(O)C(O)C(O)C(=O)O (racemic) [Compound 777, (±)-Metoprolol (+)-tartrate] | 98
CC[C@H](C)C(=O)O[C@H]1CCC=C2C=C[C@H](C)[C@H](CC[C@@H]3C[C@@H](O)CC(=O)O3)[C@H]21 [Compound 748, Mevastatin] | 106
Cl.c1ccc(CN2CCC3(CCCc4ccccc43)CC2)cc1 [Compound 712, L-687,384 hydrochloride] | 87
CC(C)(C=O)Cc1cc(C(C)(C)C)c(O)c(C(C)(C)C)c1 [Compound 226, CGP-13501] | 98
COC(=O)C1=CCCN(C)C1 [Compound 69, Arecoline hydrobromide] | 104
N[C@@H](CS(=O)O)C(=O)O [Compound 259, L-Cysteinesulfinic Acid] | 116

Same assay, conditions: 10 µM compound, 300 nM dopamine, 2 hr; hit = compound effect <20

Compound | Compound effect (percent receptor signaling in presence of test compound, relative lux units relative to the SCH23390 control) [%]
N[C@@H](COP(=O)(O)O)C(=O)O [Compound 921, O-Phospho-L-serine] | 102
(-)-Perillic acid [Compound 965] | 87
Cl.Cl.NCCNS(=O)(=O)c1cccc2cnccc12 [Compound 88, H-9 dihydrochloride] | 64
CCC(NC(C)C)C(O)c1ccc(O)c(O)c1.CS(=O)(=O)O (centres unmarked) [Compound 644, Isotharine mesylate] | 115
CC[C@@H]1C(=O)OC[C@@H]1Cc1cncn1C.Cl [Compound 959, (+)-Pilocarpine hydrochloride] | 104
Cl.NCC(O)c1cc(O)c(O)cc1F (centres unmarked) [Compound 197, 6-Fluoronorepinephrine hydrochloride] | 90
CCCCC1(C2CCCC2)Cc2cc(OCC(=O)O)c(Cl)c(Cl)c2C1=O (stereo not drawn) [Compound 454, R(+)-Butylindazone] | 97
Br.Cc1o[nH]c(=O)c1CC(N)C(=O)O (racemic) [Compound 563, (±)-AMPA hydrobromide] | 101
NC(=O)c1cc[n+](CC2=C(C(=O)[O-])N3C(=O)[C@@H](NC(=O)[C@@H](c4ccccc4)S(=O)(=O)[O-])[C@H]3SC2)cc1.[Na+] [Compound 306, Cefsulodin sodium salt hydrate] | 108
